Reference: ChEMBL document CHEMBL1133437, “Parallel synthesis of a library of 1,4-naphthoquinones and automated screening of potential inhibitors of trypanothione reductase from Trypanosoma cruzi” (Bioorg Med Chem Lett, 2000)

Columns and labels:
[1] = Concentration required for inhibition of human homologous Disulphide oxidoreductase (hGR) in the presence of GSSG as substrate
Trypanothione reductase = Trypanothione reductase (Trypanosoma cruzi, UniProt P28593); experiment: Concentration required for inhibition of Trypanothione reductase (TcTR) from Trypanosoma cruzi in the presence of 50 uM TS2 as substrate
Trypanothione reductase, sequence (P28593 whole entry): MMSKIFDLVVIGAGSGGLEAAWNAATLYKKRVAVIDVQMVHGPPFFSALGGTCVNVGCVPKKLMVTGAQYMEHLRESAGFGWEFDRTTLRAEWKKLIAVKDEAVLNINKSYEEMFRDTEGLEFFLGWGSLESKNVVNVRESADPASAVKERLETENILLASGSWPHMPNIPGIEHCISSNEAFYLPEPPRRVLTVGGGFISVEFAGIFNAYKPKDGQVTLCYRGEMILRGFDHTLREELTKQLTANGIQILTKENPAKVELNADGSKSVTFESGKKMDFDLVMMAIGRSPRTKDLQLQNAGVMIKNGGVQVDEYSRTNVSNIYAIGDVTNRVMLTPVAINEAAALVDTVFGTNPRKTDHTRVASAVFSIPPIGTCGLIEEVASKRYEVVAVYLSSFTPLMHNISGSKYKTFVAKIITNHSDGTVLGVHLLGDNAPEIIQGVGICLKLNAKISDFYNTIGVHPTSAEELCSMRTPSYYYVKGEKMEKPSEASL

[2] = target: Trypanothione reductase (Trypanosoma cruzi) (UniProt P28593); experiment: Percentage inhibition of Trypanothione reductase at 25 uM in the presence of 200 uM DTNBA as substrate
Trypanothione reductase (Trypanosoma cruzi), sequence (P28593 whole entry, looked up): as the sequence (P28593 whole entry) above

[3] = Concentration required for inhibition of human homologous Disulphide oxidoreductase (hGR)

IC50 [1] [µM]	IC50 (Trypanothione reductase) [µM]	inhibition [2] [%]	SMILES	IC50 [3] [µM]
41	0.3	88	CCCCN(CCCC)CCCNC(=O)CCCCC1=C(C)C(=O)c2cccc(O)c2C1=O	–
10	0.5	79	CC1=C(CCCCC(=O)NCCCNCCCNC(=O)CCCCC2=C(C)C(=O)c3cccc(O)c3C2=O)C(=O)c2c(O)cccc2C1=O	–
> 50	1.1	86	CCCCN(CCCC)CCCNC(=O)CCCCC1=C(C)C(=O)c2ccccc2C1=O	–
> 50	0.6	81	CCCCN(CCCC)CCCNC(=O)CCCCC1=C(CCCCC(=O)NCCCN(CCCC)CCCC)C(=O)c2c(O)cccc2C1=O	–
–	55	–	CC1=CC(=O)c2ccccc2C1=O [MENADIONE]	63

SMILES	IC50 [1] [µM]	IC50 (Trypanothione reductase) [µM]	inhibition [2] [%]	IC50 [3] [µM]
CC1=CC(=O)c2c(O)cccc2C1=O [PLUMBAGIN]	–	28	–	38
